Data from US8389539B2, “Azacyclic derivatives” (Hoffman-La Roche Inc., priority 2009, dated 2013).
pIC50: −log10 of the molar value.

The molecules below were run against T1, human HSL (Homo sapiens, UniProt Q05469) (assay: Human Hormone-Sensitive Lipase (HSL) enzyme inhibition assay (colorimetric, DMPT substrate)). Details: human full length HSL-His6, 2,3-dimercapto-1-propanol tributyrate substrate, 37° C. 20 minutes, absorbance at 405 nm; read-out: HSL hum IC50.
T1 construct: overlapping PCR to generate a full length human HSL ORF with a 3′-His6 tag; His6 (C); made in house; host or cells: High 5 insect cells (baculovirus, pFast-BAC)
T1 sequence (Q05469 1-1076): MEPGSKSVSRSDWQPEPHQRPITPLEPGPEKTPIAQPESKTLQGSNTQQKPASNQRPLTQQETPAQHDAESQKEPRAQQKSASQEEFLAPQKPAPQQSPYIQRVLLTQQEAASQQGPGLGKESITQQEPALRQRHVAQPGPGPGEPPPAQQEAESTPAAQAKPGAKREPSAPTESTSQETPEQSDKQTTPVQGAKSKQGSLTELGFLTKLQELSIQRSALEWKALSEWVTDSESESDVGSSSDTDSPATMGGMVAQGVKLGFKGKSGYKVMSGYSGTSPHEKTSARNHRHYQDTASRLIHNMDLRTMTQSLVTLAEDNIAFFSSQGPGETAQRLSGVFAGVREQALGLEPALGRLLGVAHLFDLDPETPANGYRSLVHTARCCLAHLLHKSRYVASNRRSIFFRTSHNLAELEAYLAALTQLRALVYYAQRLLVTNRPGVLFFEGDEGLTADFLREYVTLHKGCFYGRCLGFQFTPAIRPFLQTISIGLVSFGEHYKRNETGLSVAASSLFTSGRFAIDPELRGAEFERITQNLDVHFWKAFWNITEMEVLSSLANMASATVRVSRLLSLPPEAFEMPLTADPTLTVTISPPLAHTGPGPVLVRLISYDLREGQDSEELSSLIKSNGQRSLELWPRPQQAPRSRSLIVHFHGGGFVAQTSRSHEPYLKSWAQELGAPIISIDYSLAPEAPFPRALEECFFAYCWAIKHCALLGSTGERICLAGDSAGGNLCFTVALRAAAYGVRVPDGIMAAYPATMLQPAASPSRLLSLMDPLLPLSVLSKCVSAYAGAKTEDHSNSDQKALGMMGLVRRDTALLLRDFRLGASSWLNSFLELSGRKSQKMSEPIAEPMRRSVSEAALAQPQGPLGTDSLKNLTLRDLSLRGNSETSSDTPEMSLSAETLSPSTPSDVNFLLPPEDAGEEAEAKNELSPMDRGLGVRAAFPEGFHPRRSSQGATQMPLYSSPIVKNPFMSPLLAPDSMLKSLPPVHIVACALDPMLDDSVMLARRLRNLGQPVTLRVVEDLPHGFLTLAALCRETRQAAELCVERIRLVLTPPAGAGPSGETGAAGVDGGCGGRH
Format: biochemical
Procedure: 1) Cloning: cDNA was prepared from commercial human brain polyA+ RNA and used as a template in overlapping PCR to generate a full length human HSL ORF with a 3′-His6 tag. This full length insert was cloned into the pFast-BAC vector and the DNA-sequence of several single clones was verified. DNA from a correct full length clone with the 3′His6 tag was used to transform the E. coli strain DH10BAC. Resulting bacmid DNA was used to generate a titered baculovirus stock for protein generation.
Cells were thawed. […] was done at 3×30 sec., Lubrol PX was added to 0.2% final concentration followed by stirring for 15 min. at 4° C. and centrifugation at 25 k×g, 60 min., 4° C. […] Supernatant was removed, the resin washed in the centrifuge vessel using 5 volumes of Base Buffer containing 0.2% Lubrol PX. Centrifugation was done again, then the supernatant discarded. The resin was poured onto a 0.8 μm membrane in a disposable filter unit (Nalge 450-0080), and washed with 5 volumes of Base Buffer containing 0.2% Lubrol PX. It was then washed with 30 volumes of Base Buffer containing 60 mM imidazole pH 7.5 at 4° C. The protein was eluated with 5 volumes of 25 mM Tris-Cl, 300 mM NaCl, 200 mM imidazole, 10 mM 2-mercaptoethanol, pH 7.5 at 4° C. by tumbling resin with buffer end-over-end, 30 min., 4° C. The resin was captured on a 0.2 μm membrane disposable filter unit (Millipore SCGP U02 RE) and the eluate collected in the reservoir. The eluate was concentrated using a 30 k MWCO centrifugal filter device (Sartorius Vivascience Vivacell 100, VC1022), to 20 ml. It was then dialyzed overnight at 4° C., two times against 2 L of 10% glycerol, 25 mM Tris-Cl, 300 mM NaCl, 0.2 mM EDTA, 0.2 mM DTT, pH 7.5 at 4° C. The protein was filtered using a 0.22 μm disposable filter unit (Millipore SCGP00525). The protein concentration was calculated from absorbance at 280 nm, using 280=0.67 cm-1 mg-1. […] The protein was stored at −80° C.
Human Hormone-Sensitive Lipase (HSL) Enzyme Inhibition Assay:
HSL enzyme activity was measured by a colorimetric assay using 2,3-dimercapto-1-propanol tributyrate (Aldrich, St. Louis, Mo.) as a substrate. Typically, 1.5 mM 2,3-dimercapto-1-propanol tributyrate (DMPT) in 100 mM MOPS, pH 7.2, 0.2 mg/ml fatty acid-free BSA was prepared by sonication at 4° C. to homogenous suspension. Test compounds (2 mM stock in DMSO) were diluted 3 fold in series in DMSO. Compound solutions were diluted 24 fold in 1.5 mM DMPT containing solution and 18 ul per well was added to 384-well microplates (Corning Costar). Twelve microliters per well of human HSL (15 ug/ml) was added and the reaction mixture was incubated at 37° C. for 20 minutes. Six microliters of 12 mM dithio-bis-(2-nitrobenzoic acid) (DTNB) in DMSO plus 1.2% SDS and 0.6% Triton X-100 were added and the mixture was incubated at room temperature for 15 minutes. Product production was monitored by reading absorbance at 405 nm on an Envision Reader (PerkinElmer Life and Analytical Sciences, Shelton, Conn.).

| Compound | pIC50 |
| --- | --- |
| O=C(CCN1CCC2(CC1)CCN(c1ccc(C3CC3)cc1)C2=O)NCc1ccc(C(F)(F)F)cc1 [Example 19, 3-[2-(4-Cyclopropyl-phenyl)-1-oxo-2,8-diaza-spiro[4.5]dec-8-yl]-N-(4-trifluoromethyl-benzyl)-propionamide] | 7.52 |
| CCCCNC(=O)[C@H](CCCC)N1CCC2(CCN(c3ccc(C4CC4)cc3)C2=O)CC1 [Example 41, (S)-2-[2-(4-Cyclopropyl-phenyl)-1-oxo-2,8-diaza-spiro[4.5]dec-8-yl]-hexanoic acid butylamide] | 7.33 |
| C[C@H](Oc1ccc(N2CCC3(CCN(CC(O)c4c(F)cccc4Cl)CC3)C2=O)cc1)C(F)(F)F (stereo partly drawn) [Example 54, 8-[2-(2-Chloro-6-fluoro-phenyl)-2-hydroxy-ethyl]-2-[4-((S)-2,2,2-trifluoro-1-methyl-ethoxy)-phenyl]-2,8-diaza-spiro[4.5]decan-1-one] | 7.54 |
| CCC(c1ccccc1)N1CCC2(CCN(c3ccc(C4CC4)cc3)C2=O)CC1 (stereo not drawn) [Example 7, 2-(4-Cyclopropyl-phenyl)-8-(1-phenyl-propyl)-2,8-diaza-spiro[4.5]decan-1-one] | 7.52 |

Continued, values first:

| pIC50 | Compound |
| --- | --- |
| 7.66 | C[C@@H](Oc1ccc(N2CCC3(CCN(CC(O)c4ccc(Cl)cc4Cl)CC3)C2=O)cc1)C(F)(F)F (stereo partly drawn) [Example 51, 8-[2-(2,4-Dichloro-phenyl)-2-hydroxy-ethyl]-2-[4-((R)-2,2,2-trifluoro-1-methyl-ethoxy)-phenyl]-2,8-diaza-spiro[4.5]decan-1-one] |
| 7.40 | CC(C(=O)Nc1ccc(F)cc1)N1CCC2(CCN(c3ccc(C4CC4)cc3)C2=O)CC1 (stereo not drawn) [Example 25, 2-[2-(4-Cyclopropyl-phenyl)-1-oxo-2,8-diaza-spiro[4.5]dec-8-yl]-N-(4-fluoro-phenyl)-propionamide] |
| 7.42 | C[C@H](Oc1ccc(N2CCC3(CCN(CC(O)c4c(F)cccc4Cl)CC3)C2=O)cn1)C(F)(F)F (stereo partly drawn) [Example 55, 8-[2-(2-Chloro-6-fluoro-phenyl)-2-hydroxy-ethyl]-2-[6-((S)-2,2,2-trifluoro-1-methyl-ethoxy)-pyridin-3-yl]-2,8-diaza-spiro[4.5]decan-1-one] |
| 7.70 | O=C1N(c2ccc(C3CC3)cc2)CCC12CCN(C[C@H](O)c1ccc(F)cc1)CC2 [Example 35, 2-(4-Cyclopropyl-phenyl)-8-[(R)-2-(4-fluoro-phenyl)-2-hydroxy-ethyl]-2,8-diaza-spiro[4.5]decan-1-one] |
| 7.22 | CN(C(=O)CN1CCC2(CC1)CCN(c1ccc(C3CC3)cc1)C2=O)C1CCCCC1 [Example 16, N-Cyclohexyl-2-[2-(4-cyclopropyl-phenyl)-1-oxo-2,8-diaza-spiro[4.5]dec-8-yl]-N-methyl-acetamide] |
